Results: publication PMC11679033, “Assessing the Potential Synergistic/Antagonistic Effects of Citrinin and Cannabidiol on SH-SY5Y, HepG2, HEK293 Cell Lines, and Human Lymphocytes” (Toxins, 2024)

Tests used:
SH-SY5Y cells = experiment: Cell membrane integrity (LDH release), SH-SY5Y; type: cell-based, human; details: 24 h, CBD 1 μM, CIT 30 μM, alone or combined
Description: (§1) Cell membrane integrity was determined after exposure to compounds’ concentrations corresponding to LOAEL concentrations in 24 h by measuring the release of the intracellular lactate dehydrogenase (LDH) and the procedure followed a previously described protocol using The CytoTox-ONE™ Homogeneous Membrane Integrity Assay (Promega, Madison, WI, USA). In short, the cells were seeded in black 96-well plates at a density of 10,000 cells/well one day before the experiment and treated with selected LOAEL concentrations. Triton X-100 at a final concentration of 0.18% (v/v) (stock of 9% in water) was used as a positive control to determine the maximal LDH release. Data were taken from at least two independent experiments (each treatment performed in duplicate or triplicate) and plotted as a percentage of LDH release compared to the determined maximal LDH release, according to the manufacturer’s calculation protocol.

HEK293 cells [1] = experiment: Cell membrane integrity (LDH release), HEK293; type: cell-based, human; details: HEK293, 24 h; CBD 2 μM, CIT 0.05 μM, alone or combined
Description: as §1

[2] = system: human peripheral blood lymphocytes; experiment: Alkaline comet assay; type: cell-based; details: 24 h, CIT 30 µM; for tail intensity, mean value ± SE: CBD 1 µM, bleomycin 1.25 µg/mL
Description: The experimental design included the establishment of lymphocyte cultures, and the 24 h treatments with the test compounds, performed according to the last OECD recommendations, given in the Test Guideline No. 487—In Vitro Mammalian Cell Micronucleus Test.
The selection of specific concentrations of test compounds adhered to the guidelines for in vitro genotoxicity testing using comet assay. […] Solutions used in testing were prepared just prior to treatment by dissolving the test compounds in ethanol (Kemika, Zagreb, Croatia).
Two independent trials, with six experimental groups each, were conducted. A total of six replicate cultures for every single experimental group were established. This step was carried out as follows: aliquots of heparinized blood (V = 600 μL per culture) were pipetted into a growth medium RPMI-1640 (Gibco, Grand Island, NY, USA) supplemented with 10% fetal calf serum (Gibco, Grand Island, NY, USA) and antibiotics (penicillin and streptomycin; Sigma-Aldrich, Steinheim, Germany). Lymphocytes were stimulated with a mitogen phytohemagglutinin (Remel, Lenexa, KS, USA) in order to induce cell division prior to exposure to the test chemicals. Cultures were maintained in the humidified atmosphere of 5% CO2 at 37 °C (Heraeus Hera Cell 240 incubator; Langenselbold, Germany).
Negative controls (NCs) were non-treated lymphocytes. Solvent controls (SCs) were lymphocytes treated with ethanol (its final concentration in the culture corresponded to 0.03%). Positive controls (PCs) were lymphocytes treated for 24 h with bleomycin at 1.25 µg/mL (according to [69]). The other three groups were lymphocytes exposed to single CIT, single CBD, and their combination (CIT + CBD, at the same concentrations).
Treatments with test compounds started 20 h after the initial establishment of the cell cultures and lasted for 24 h. Upon completion of the exposure, aliquots of 100 µL of the treated cultures were pipetted in sterile conditions and used to prepare microgels for the alkaline comet assay. The remaining content of flasks was further processed using Cytokinesis-Block Micronucleus Cytome (CBMN Cyt) Assay.

HEK293 cells [3] = system: HEK293 cells; set-up: method as in PMID 13678658; details: HEK293, concentrations ≤60 μM for 24 h; cited from earlier work
A549 cells = system: A549 cells; set-up: method as in PMID 39057961; details: A549, 24 h, sub-IC50 and near IC50 concentrations; cited from earlier work
[4] = system: cultured human lymphocytes; set-up: method as in PMID 17265422; details: 48 h exposure, 60–100 μM; cited from earlier work
HepG2 cells = details: cited from earlier work
human TK6 cells = system: human TK6 cells; set-up: method as in PMID 37105391; details: up to 10–11 μg/mL, with and without metabolic activation; cited from earlier work
[5] = system: human liver cell line (HepG2); set-up: method as in PMID 30341733; details: cited from earlier work
[6] = system: buccal-derived cells (TR146); set-up: method as in PMID 30341733; details: cited from earlier work
[7] = set-up: method as in PMID 38908200; details: 24 h exposure to CBD samples; cited from earlier work

SMILES | cell membrane integrity (LDH release) (SH-SY5Y cells) | cell membrane integrity (LDH release) (HEK293 cells [1]) | group median value of tail intensity [2] | tail intensity, mean value ± SE [2] [%] | toxic effect in Fpg-modified comet assay (HEK293 cells [3]) | DNA damage in comet assay (A549 cells) | induction of MNi vs negative controls [4] | DNA damage in comet assay (HepG2 cells; HepG2, 24 h, sub-IC50 and near IC50 concentrations) | genotoxicity in comet assay (HepG2 cells; HepG2) | genotoxic hazard (human TK6 cells) | level above which damage was found in MN assay [5] | level above which damage was found in MN assay [6] | genomic instability estimated by CBMN Cyt Assay [7]
CC1=C2C(=CO[C@H](C)[C@H]2C)C(O)=C(C(=O)O)C1=O [CIT, citrinin] | not significantly compromised | not significantly compromised | below 10% | 6.56 ± 0.37 | did not show toxic effect | induced significant DNA damage | significant induction of MNi | induced significant DNA damage | no significant genotoxicity |  |  |  | 
C=C(C)[C@@H]1CCC(C)=C[C@H]1c1c(O)cc(CCCCC)cc1O [CBD, cannabidiol] | not significantly compromised | not significantly compromised |  | 1.07 ± 0.08 |  |  |  |  |  | did not pose a genotoxic hazard | above 0.2 µM | above 0.2 µM | no changes in genomic instability
